Experimental data taken from publication PMC8893300, “A Dynamic Mass Redistribution Assay for the Human Sweet Taste Receptor Uncovers G-Protein Dependent Biased Ligands” (Frontiers in Pharmacology, 2022).

Assays:
parental U2OS cells = assay: DMR assay on parental U2OS cells (receptor-independent responses); format: cell-based
Experimental: The plates were incubated in the tissue culture hood for 20 min to allow cells to settle evenly at the bottom of the microplate and further cultured at 37°C in an atmosphere of 5% CO2 for 18–24 h. The next day, the cells were subjected to functional analysis using DMR. The lidded Epic® 384 microplate and polypropylene compound plate (Corning) were loaded into the carousel of the Epic® reader, the target plate was washed with DMSO matched D-PBS using the Corning Epic® Liquid Handling Accessory (LHA) and equilibrated in 25 μl of DMSO matched D-PBS for 90 min. […] When indicated, data for agonist dose-responses were normalized to data obtained with a maximum concentration of sucralose (1 mM) and then fitted and plotted using GraphPad Prism (San Diego, CA) and non-linear regression analysis.

[1] = tested on: somatostatin response in R2/R3 U2OS cells; assay: Pathway blockers on somatostatin-mediated DMR response in R2/R3 U2OS cells
Experimental: (§1) Blocker stocks (250x) were prepared in DMSO or water and stored as aliquots at −20°C. Just before use, they were diluted to 2X their final concentration in assay buffer (D-PBS) at a final concentration of 0.4% DMSO. Concentrated stock solutions of the agonists somatostatin, carbachol, EGF, and sucralose were made in water or D-PBS while S1P was made up in 50% EtOH. Just before use, the agonists were diluted to 5X their final concentration in D-PBS at a final concentration of 0.4% DMSO. Final agonist concentrations were 10 μM somatostatin, 100 μM carbachol, 100–300 ng/ml EGF, 2 mM sucralose and 1 μM S1P. R2/R3 U2OS cells were plated as described above. The following day cells were washed on the Epic® with D-PBS/0.4% DMSO leaving a residual volume of 10 μl. 10 μl of D-PBS/0.4% DMSO was added to each well by hand followed by 20 μl of 2X pathway blocker. Cell plates were equilibrated on the Epic® for 90 min. After recording the baseline activity for 5 min, 10 μl of 5X agonist was added using the LHA and the DMR responses were monitored for an additional 40 min.
(§2) Cells were equilibrated at room temperature for 90 min in the Epic® reader with the indicated concentrations of pathway blockers or latrunculin A. In the case of PTx, cells were incubated over night at 37°C and on the day of the experiment PTx was replaced with buffer and cells were equilibrated in the Epic® reader as described above. A 5x-concentrated stock of agonist was then added onto the cells and DMR responses were recorded as described in Materials and Methods. […] Two to eight independent experiments were conducted with each blocker (number of independent experiments are indicated on the bar graph).

[2] = tested on: S1P response in R2/R3 U2OS cells; assay: Pathway blockers on S1P-mediated DMR response in R2/R3 U2OS cells
Experimental: as §1, §2

[3] = tested on: EGF response in R2/R3 U2OS cells; assay: Pathway blockers on EGF-mediated DMR response in R2/R3 U2OS cells
Experimental: as §1, §2

[4] = tested on: carbachol response in R2/R3 U2OS cells; assay: Pathway blockers on carbachol-mediated DMR response in R2/R3 U2OS cells
Experimental: as §1, §2

[5] = tested on: sucralose response (sweet taste receptor) in R2/R3 U2OS cells; assay: Pathway blockers on sucralose-mediated DMR response in R2/R3 U2OS cells
Experimental: as §1, §2

For COc1ccc(OC(C)C(=O)O)cc1 (centres unmarked) [lactisole, 2-(4-methoxyphenoxy)-propionic acid], the “DMR response on parental U2OS cells, in words” value (parental U2OS cells) was “positive DMR response”.
For COc1cc2ncnc(Nc3cccc(Cl)c3)c2cc1OC [tyrphostin, Tyrphostin AG 1478], the inhibition at 1 µM ([1]; Homo sapiens, U2OS, read-out: % inhibition of the somatostatin DMR response) was 3.1%, the inhibition at 1 µM ([2]; Homo sapiens, U2OS, read-out: % inhibition of the S1P DMR response) was -7% and the “effect on the EGF DMR response, in words” value ([3]; 100–300 ng/ml EGF, latrunculin A 1 μM, GW583340 10 μM, tyrphostin 1 μM, GSK269962 2 μM) was “abolished”. It also gave an inhibition at 1 µM ([4]; Homo sapiens, U2OS, read-out: % inhibition of the carbachol DMR response) of -10.8% and an inhibition at 1 µM ([5]; Homo sapiens, U2OS, read-out: % inhibition of the sucralose DMR response) of 2.6%.
For COC[C@H]1OC(=O)c2coc3c2[C@@]1(C)C1=C(C3=O)[C@@H]2CCC(=O)[C@@]2(C)C[C@H]1OC(C)=O [wortmannin], the “effect on the somatostatin DMR response, in words” value ([1]; 10 μM somatostatin, latrunculin A 1 μM, wortmannin 200 nM, U0126 2 μM, GSK269962 2 μM) was “no statistically significant effects”, the “% enhancement of the S1P DMR response” value ([2]; 1 μM S1P, wortmannin 200 nM, mean ± sd, n = 4) was 61 ± 22% and the inhibition at 0.2 µM ([3]; Homo sapiens, U2OS, read-out: % inhibition of the EGF DMR response) was 42 ± 10%. The “effect on the carbachol DMR response, in words” value ([4]; 100 μM carbachol, latrunculin A 1 μM, wortmannin 200 nM, U0126 2 μM, GSK269962 2 μM) was “no statistically significant effects” and the “effect on the sucralose DMR response, in words” value ([5]; 2 mM sucralose, latrunculin A 1 μM, PTx overnight, wortmannin 200 nM, U0126 2 μM) was “no statistically significant effects”.
